Read-outs that look alike come from different tables or passages of the source.
Columns and labels:
Assay type in all cases: in vivo
[1] = Acute toxicity in mice (i.v.); conditions: mouse, in vivo, iv
Protocol: (§1) 1. Acute toxicity in mice
(§2) The dosage of test material which, on intravenous administration in mice causes the death of 50% of the test animals is determined (death rate is determined after 10 days of observation).

mice [2] = assay: Acute toxicity in mice (i.v.); conditions: mice
Protocol: as §1, §2

mice [3] = assay: Survival time of mice under a confined atmosphere; conditions: for ED50: Mus musculus, protected = survival time greater by at least 30% than reference animals, read-out: ED50 (protects 50% of the test animals)
Protocol: 2. Survival time of mice under a confined atmosphere
Mice are individually placed in sealed 250 ml glass jars. Survival time is measured taking respiratory failure as a criterion of death.
The test materials are administered as aqueous solutions:
either intraperitoneally, in which case the animals are submitted to the test 30 minutes after injection,
or orally, in which case the animals are submitted to the test 1.5 hour after administration.
The dosage of material (ED50) which protects 50% of the test animals is determined: is considered as protected, a mouse having a survival time greater by a factor of at least 30% with respect to the average survival time of the reference animals.

spinal rat = assay: Electroencephalographic consequences of cerebral hypoxia induced by temporary ischemia in rat; conditions: for Cortical recovery time / Cortical resistance time: rat ischemia, 5 min prior; for Cortical recovery time: saline 19.8 ± 1.3; for Cortical resistance time: saline 22.3 ± 0.6
Protocol: 3. Electroencephalographic consequences of cerebral hypoxia induced by temporary ischemia in rat
In spinal rat, the effects of a temporary cerebral ischemic hypoxia obtained by ligation of the vertebral arteries and clamping, during 60 seconds, of the carotid arteries, are investigated at the level of the electrocorticogram (recorded in fronto-parietal lead). The following times are determined:
on the one hand, the "cortical resistance" time, i.e., the period of time which elapses between failure of the cerebral circulation and the appearance, in the recording, of the "dectric silence"disappearance of cortical electrogenesis), and
on the other hand, the "cortical recovery" time, i.e., the period of time which elapses between unclamping of the carotid arteries and the reappearance of a cortical electrogenesis.
The test materials are administered intravenously 5 minutes prior to ischemia. The results obtained in the treated animals are compared with those obtained in a lot of reference animals according to Student's "t" method.

curarized rat = assay: Electroencephalographic consequences of cerebral hypoxia induced by temporary asphyxia in rat; conditions: for Cortical recovery time / Cortical resistance time: rat asphyxia, 5 min prior; for Cortical recovery time: saline 42.3 ± 7.3; for Cortical resistance time: saline 77.8 ± 2.9
Text: 4. Electroencephalographic consequences of a cerebral hypoxia induced by temporary asphyxia in rat
The effects of an asphyxic cerebral hypoxia, obtained by a two-minute interruption of the artificial respiration of a curarized rat are investigated at the level of the electro-corticogram (recorded in fronto-parietal lead) by determining:
on the one hand the "cortical resistance" time, i.e., the period of time which elapses between the discontinuation of artificial respiration and the appearance in the recording of the "electric silence" (disappearance of cortical electrogenesis),
(§3) on the other hand, the "cortical recovery" time, i.e., the period of time which elapses between the resumption of artificial respiration and the reappearance of a cortical electrogenesis.
(§4) The test materials are administered intravenously 5 minutes prior to asphyxia. The results obtained in the treated animals are compared with those obtained in a lot of reference animals, according to Student's "t" method.

curarized cat = assay: Electroencephalographic consequences of cerebral hypoxia induced by temporary asphyxia in cat; conditions: for Cortical recovery time / Cortical resistance time: cat asphyxia, 5 min prior; for Cortical recovery time: saline 27.3 ± 2.3; for Cortical resistance time: saline 108 ± 5.6
Text: 5. Electroencephalographic consequences of cerebral hypoxia induced by temporary asphyxia in cat
The effects of an asphyxic cerebral hypoxia, obtained by temporary discontinuance of the artificial respiration of a curarized cat are investigated at the level of the electrocorticogram (recorded in parieto-occipital lead), by determining:
on the one hand, the "cortical resistance" time, i.e., the period of time which elapses between the discontinuance of the artificial respiration and the appearance in the recording of the "electric silence" (disappearance of cortical electrogenesis),
as §3, with “electrogenesis. The resumption of artificial respiration is effected in all cases 45 seconds after appearance of the cortical silence.” for “electrogenesis.”
as §4

[4] = ip, 0.5 h, i.p., 30 min before test
[5] = 2.5 mg/kg i.v., n=6, mean ± standard deviation from mean
[6] = 2.5 mg/kg i.v., n=8, mean ± standard deviation from mean

COC(=O)[C@@]1(O)C[C@@H]2CCCN3CCc4c(n1c1ccccc41)[C@H]23 (relative stereo) [Deethylvincamine, (±) 20-Deethyl-vincamine]
LD50 at 240 h [1]: 40 mg/kg
acute toxicity compared with vincamine (mice [2]): substantially of the same order of magnitude as that of vincamine
ED50 (mice [3]; [4]): 8 mg/kg
ED50 (mice [3]; po, 1.5 hour before test): 24.5 mg/kg
Number of mice protected (mice [3]; i.p., 3 mg/kg, 30 min before test): 1/6
Number of mice protected (mice [3]; i.p., 9 mg/kg, 30 min before test): 3/6
Number of mice protected (mice [3]; i.p., 27 mg/kg, 30 min before test): 6/6
protective activity (increase of the survival time) (mice [3]; mice, confined atmosphere, i.p. and p.o., compared with vincamine): markedly superior to that of vincamine
Number of mice protected (mice [3]; p.o., 7.5 mg/kg, 1.5 hour before test): 0/6
Number of mice protected (mice [3]; p.o., 15 mg/kg, 1.5 hour before test): 1/6
Number of mice protected (mice [3]; p.o., 30 mg/kg, 1.5 hour before test): 4/6
Cortical recovery time (spinal rat; 0.25 mg/kg i.v., n=6): 20.3 ± 2.7 s
Cortical resistance time (spinal rat; 0.25 mg/kg i.v., n=6): 25.3 ± 1.2 s
Cortical recovery time (spinal rat; 0.5 mg/kg i.v., n=6, (*) significant P < 0.05 vs controls): 14.3 ± 1.1 s
Cortical resistance time (spinal rat; 0.5 mg/kg i.v., n=6): 24.3 ± 1.6 s
protective activity (decrease of time required for resumption of cortical electrogenesis) (spinal rat; rat, ischemia, 0.5 mg/kg i.v.): marked protective activity
Cortical recovery time (curarized rat; 0.5 mg/kg i.v., n=6): 38.8 ± 5.9 s
Cortical resistance time (curarized rat; 0.5 mg/kg i.v., n=6): 84.2 ± 4.5 s
Cortical recovery time (curarized rat; 1 mg/kg i.v., n=7, (*) significant P<0.05 vs controls): 23.0 ± 5.0 s
Cortical resistance time (curarized rat; 1 mg/kg i.v., n=7): 78.0 ± 5.6 s
protective activity (decrease of time required for resumption of cortical electrogenesis) (curarized rat; rat, asphyxia, 1 mg/kg i.v.): marked protective activity
Cortical recovery time (curarized cat; 0.5 mg/kg i.v., n=6, (*) significant P <0.05 vs controls): 19.0 ± 2.0 s
Cortical resistance time (curarized cat; 0.5 mg/kg i.v., n=6): 98 ± 10.8 s
protective activity (decrease of time required for resumption of cortical electrogenesis) (curarized cat; cat, asphyxia, 0.5 mg/kg i.v.): exhibits a protective activity

CC[C@]12CCCN3CCc4c(n(c5ccccc45)[C@@](O)(C(=O)OC)C1)[C@@H]32 (racemic) [Vincamine, (.-+.)-Vincamine]
LD50 at 240 h ([1]; mice, i.v., death rate after 10 days of observation): 62 mg/kg
ED50 (mice [3]; [4]): 18 mg/kg
ED50 (mice [3]; po, 1.5 hour before test): 40 mg/kg
Number of mice protected (mice [3]; i.p., 1 mg/kg, 30 min before test): 0/6
Number of mice protected (mice [3]; i.p., 5 mg/kg, 30 min before test): 1/6
Number of mice protected (mice [3]; i.p., 25 mg/kg, 30 min before test): 4/6
Number of mice protected (mice [3]; p.o., 25 mg/kg, 1.5 hour before test): 2/6
Number of mice protected (mice [3]; p.o., 50 mg/kg, 1.5 hour before test): 4/6
Number of mice protected (mice [3]; p.o., 100 mg/kg, 1.5 hour before test): 5/6
Cortical recovery time (spinal rat; [5]): 21.8 ± 2.0 s
Cortical resistance time (spinal rat; [5]): 22.2 ± 1.2 s
Cortical recovery time (spinal rat; 5 mg/kg i.v., n=7): 19.9 ± 3.0 s
Cortical resistance time (spinal rat; 5 mg/kg i.v., n=7): 23.4 ± 0.9 s
protective activity (spinal rat; rat, ischemia, 2.5 and 5 mg/kg i.v.): free from any protective activity
Cortical recovery time (curarized rat; [5]): 55.5 ± 20.2 s
Cortical resistance time (curarized rat; [5]): 83.3 ± 6.4 s
Cortical recovery time (curarized rat; 5.0 mg/kg i.v., n=6): 32.8 ± 1.8 s
Cortical resistance time (curarized rat; 5.0 mg/kg i.v., n=6): 89.0 ± 7.6 s
protective activity (curarized rat; rat, asphyxia, 2.5 and 5 mg/kg i.v.): free from any protective activity
Cortical recovery time (curarized cat; [6]): 24.6 ± 3.4 s
Cortical resistance time (curarized cat; [6]): 101 ± 13.9 s
Cortical recovery time (curarized cat; 5 mg/kg i.v., n=8, (*) significant P <0.05 vs controls): 19.6 ± 1.4 s
Cortical resistance time (curarized cat; 5 mg/kg i.v., n=8): 101 ± 5.6 s
protective activity (curarized cat; cat, asphyxia, 5 mg/kg i.v. (tenfold dosage)): apparent only at a tenfold dosage of 5 mg/kg i.v.

Source: patent US4033969A, “Vincamine derivatives” (Agence Nationale de Valorisation de la Recherche (ANVAR), priority 1972, dated 1977)
